Series [1] deals with artificial human skin. In words: SEM observation of three-dimensionally cultured artificial human skin after adding a drug (side effect evaluation). Format: cell-based. The conditions noted are these: 60 minutes after gefitinib dissolved in DMSO was added; SEM 2,500-fold; DMSO control kept normal morphology. How it is done:
(§1) A protective agent for electron microscopic observation and a surfactant-containing solution were prepared in the same manner as in Example 1.
The artificial human skin obtained by sterically three-dimensionally culturing a normal human skin cell was treated with the protective agent for electron microscopic observation and the surfactant-containing solution in 60 minutes after gefitinib was added the artificial human skin. Thereafter, the artificial human skin covered with the surfactant-containing solution was introduced into the sample chamber of the SEM, irradiated with an electron beam to polymerize the surfactant-containing solution and thus to form a thin film, and subjected to the SEM observation (Example 12).
FIGS. 18A and 18B are photographs of the three-dimensionally cultured artificial human skin. FIG. 18A is a photograph which illustrates the artificial human skin being cultured and the culture vessel. In addition, FIG. 18B is a photograph of the HE-stained pathological section of the artificial human skin of FIG. 18A. FIG. 19(a) is an image of the artificial human skin which was observed and taken at a magnification of 2,500-fold by a SEM after gefitinib dissolved in dimethyl sulfoxide (DMSO) was added the artificial human skin. […]

The test system of series [2] is metastatic human melanoma cell line. In words: SEM observation of metastatic human melanoma cell line inoculated on a cell sheet of normal human skin cell after adding an anti-cancer drug. Format: cell-based. Conditions: 60 minutes after sorafenib was added; cell sheet of human skin-derived fibroblast cell; SEM image. How it is done:
as §1
A cell sheet obtained by culturing a normal human skin cell in a plate shape was inoculated with a metastatic human melanoma cell line and treated with the protective agent for electron microscopic observation and the surfactant-containing solution in 60 minutes after sorafenib of a kind of anti-cancer drug was added the cell sheet. Thereafter, the metastatic human melanoma cell line covered with the surfactant-containing solution was introduced into the sample chamber of the SEM, irradiated with an electron beam to polymerize the surfactant-containing solution and thus to form a thin film, and subjected to the SEM observation.
FIG. 17(a) is an image of the metastatic human melanoma cell line which was inoculated onto a cell sheet of the human skin-derived fibroblast cell, to which sorafenib was added, and which was observed and taken at a magnification of 1000-fold by a SEM. In addition, FIG. 17(b) is an image of FIG. 17(a) which was observed and taken at a magnification of 5000-fold by a SEM.

SMILES strings stand for the structures.

Results on 2 compounds are retold here after patent US10128078B2, “Protective agent for electron microscopic observation of biological sample in water-containing state, kit for electron microscopic observation, methods for observation, diagnosis, evaluation, and quantification by electron microscope, and sample stage” (JAPAN SCIENCE AND TECHNOLOGY AGENCY, priority 2014, dated 2018).

Take `COc1cc2ncnc(Nc3ccc(F)c(Cl)c3)c2cc1OCCCN1CCOCC1` [gefitinib]: in series [1], the “surface change of a skin cell (side effect)” value was “peeled off in a scale shape”. `CNC(=O)c1cc(Oc2ccc(NC(=O)Nc3ccc(Cl)c(C(F)(F)F)c3)cc2)ccn1` [sorafenib]: the “extension of a microfiber and invasion of the melanoma cell line into the normal skin cell” value in series [2] is reported as “not able to extend a microfiber so that the invasion thereof is suppressed”.
